Measurements as given in patent publication US7141553B2, “A3AR agonists for the treatment of inflammatory arthritis” (Can-Fite Biopharma Ltd. Israel, priority 2002, dated 2006).

Assays:
[1] = test system: healthy men; test: Repeat dose study in healthy men, safety and tolerability; format: in vivo, human
Method: Two clinical studies were carried out: a single dose study and a repeat dose study. Both studies were parallel-group, double-blind, dose-rising, and placebo-controlled in design.
(§1) In the single dose study, 15 healthy men (3 groups of 5) received a single oral dose of IB-MECA (1, 5 or 10 mg) or placebo. In each group, 1 subject received placebo. In the repeated dose study, 28 healthy men (4 groups of 7) received repeated oral doses of IB-MECA (2, 3, 4 or 5 mg) or placebo every 12 h for 7 days. In each group, 2 subjects received placebo.
Healthy young men, aged 18–45 years.
(§2) In the single dose study, a solution with IB-MECA powder in 30% Cremophor RH40 (BASF) was used. In the repeated dose study, an aqueous 0.5% methylcellulose suspension (Methocel A4M Premium, The Dow Chemical Company) was used. In both studies, the study medication was taken orally as a drink, followed by 50 ml of tap water.
(§3) The following procedures were done: • Safety assesment: laboratory assessments (routine biochemistry and urinalysis), physical examination, 12-lead ECG, ambulatory ECG, pulmonary function testing (FEV1), vital signs (semi-recumbent in the single dose study; semi-recumbent and standing in the repeat dose study). Adverse events were recorded throughout both studies. • Determination of IB-MECA blood level: in the single dose study blood samples for assay of IB-MECA were taken immediately before and at 0.25, 0.5, 1, 2, 4, 8, 12, 24, and 48 h after dosing; in the repeat dose study—blood samples were taken immediately before and at 0.25, 0.5, 1, 2, 4, 8, and 12 h after dosing on Day 1, before dosing on Days 2–6, and before and at 0.25, 0.5, 1, 2, 4, 8, 12, and 24 h after dosing on Day 7.
Data from all subjects who received IB-MECA were included in the analysis of safety and tolerability (adverse events and laboratory safety variables). Numerical data and parameters were summarised using means or medians, and other descriptive statistics, according to the type and distribution of the data.

[2] = Plasma half life in mice; format: in vivo, mouse
[3] = Repeat dose study in healthy men, plasma pharmacokinetics; format: in vivo, human; conditions: for Cmax: n=5
Method: as §1, §2, §3
Plasma samples were assayed for IB-MECA using LC/MS/MS. The lower limit of quantification (LLOQ) was 0.1 ng/mL. Intra-assay coefficients of variation (CV) were <5.0% and inter-assay CVs were <9.4%.
Maximum concentration (Cmax) and time to maximum concentration (tmax) were observed values. Other pharmacokinetic parameters (half-life, t^1/2; AUC; and clearance, CL/F) were calculated by non-compartmental methods using WinNonlin® software (version 3.0, Pharsight, Mountain View, Calif., US). Accumulation indices of Cmax and AUC were calculated as ratio of values at steady state (Day 7) to the values on Day 1.

[4] = 2 mg every 12 h, Day 1, mean (SD)
[5] = 2 mg every 12 h, Day 7, mean (SD)
[6] = 3 mg every 12 h, Day 1, mean (SD)
[7] = 3 mg every 12 h, Day 7, mean (SD)
[8] = 4 mg every 12 h, Day 1, mean (SD)
[9] = 4 mg every 12 h, Day 7, mean (SD)
[10] = 5 mg every 12 h, Day 1, mean (SD)

## CNC(=O)[C@H]1O[C@@H](n2cnc3c(NCc4cccc(I)c4)ncnc32)[C@H](O)[C@@H]1O [IB-MECA, N6-(3-iodobenzyl)-adenosine-5′-N-methyl-uronamide]
[1]; 2-5 mg every 12 h for 7 days, vital signs, physical examination, FEV1, ECG
  safety profile: acceptable safety profile
[1]; Day 1 of repeated dosing, effect smaller on Day 7
  heart rate: dose-related increase in heart rate
[1]; repeat doses of up to 4 mg 12-hourly
  tolerability: safe and well tolerated
[1]; repeated doses of 5 mg 12-hourly
  adverse events within 12 h of dosing: 13
[1]; repeated doses of up to 4 mg 12-hourly
  adverse events within 12 h of dosing: 2
[1]; twice daily administration
  maximal tolerated dose: 4 mg
[2]
  half life: 1.5 h
[3]; [4]
  AUC (AUC(inf) on Day 1): 207.4 (52.0) ng · h/mL
  AUC(0–12): 155.2 (39.1) ng · h/mL
  CL/F: 10.1 (2.3) L/h
  t1/2: 5.52 (0.2) h
  Cmax: 22.0 (3.3) ng/mL
[3]; 2 mg every 12 h, Day 1, median (range)
  tmax: 2 (1–4) h
[3]; [5]
  AUC (AUC(0–24) on Day 7): 346.3 (64.0) ng · h/mL
  AUC(0–12): 242.4 (41.4) ng · h/mL
  CL/F: 4.9 (0.7) L/h
  t1/2: 9.83 (1.2) h
  Cmax: 30.9 (3.1) ng/mL
[3]; 2 mg every 12 h, Day 7, median (range)
  tmax: 2 (1–2) h
[3]; [6]
  AUC (AUC(inf) on Day 1): 423.5 (27.5) ng · h/mL
  AUC(0–12): 304.5 (19.5) ng · h/mL
  CL/F: 7.1 (0.5) L/h
  t1/2: 6.29 (1.0) h
  Cmax: 49.3 (9.7) ng/mL
[3]; 3 mg every 12 h, Day 1, median (range)
  tmax: 2 (1–2) h
[3]; [7]
  AUC (AUC(0–24) on Day 7): 512.1 (74.1) ng · h/mL
  AUC(0–12): 341.6 (38.1) ng · h/mL
  CL/F: 5.0 (0.6) L/h
  t1/2: 9.25 (0.8) h
  Cmax: 49.0 (7.9) ng/mL
[3]; 3 mg every 12 h, Day 7, median (range)
  tmax: 1 (1–2) h
[3]; [8]
  AUC (AUC(inf) on Day 1): 400.2 (85.7) ng · h/mL
  AUC(0–12): 297.0 (57.2) ng · h/mL
  CL/F: 10.4 (2.1) L/h
  t1/2: 5.77 (0.6) h
  Cmax: 46.2 (11.4) ng/mL
[3]; 4 mg every 12 h, Day 1, median (range)
  tmax: 2 (1–2) h
[3]; [9]
  AUC (AUC(0–24) on Day 7): 640.3 (73.7) ng · h/mL
  AUC(0–12): 458.3 (54.8) ng · h/mL
  CL/F: 5.4 (0.7) L/h
  t1/2: 8.93 (0.8) h
  Cmax: 58.1 (10.4) ng/mL
[3]; 4 mg every 12 h, Day 7, median (range)
  tmax: 1 (1–2) h
[3]; [10]
  AUC (AUC(inf) on Day 1): 596.1 (196.6) ng · h/mL
  AUC(0–12): 461.6 (157.4) ng · h/mL
  CL/F: 9.3 (3.5) L/h
  t1/2: 4.96 (0.3) h
  Cmax: 63.6 (22.0) ng/mL
[3]; 5 mg every 12 h, Day 1, median (range)
  tmax: 2 (1–2) h
